For 32 compounds, EC50 results are on record in BindingDB's records for PubMed 34170694 (China Pharmaceutical University, 2021).

Molecular target in one assay: not listed separately
The assay is described as follows: Activation of caspase 3 in human MDA-MB-231 cells measured after 48 hrs by Plate reader method.
Consider `CC1=C(O)C(=O)C=C2C1=CC=C1[C@@]2(C)CC[C@@]2(C)[C@@H]3C[C@](C)(C(=O)OCc4ccccc4)CC[C@]3(C)CC[C@]12C`, for which the EC50 amounted to 1.6 µM. Still for that read-out and setting: in the case of `C#CCOC(=O)[C@]1(C)CC[C@]2(C)CC[C@]3(C)C4=CC=C5C(=CC(=O)C(OC(C)=O)=C5C)[C@]4(C)CC[C@@]3(C)[C@@H]2C1` it was 19.3 µM. On the same count and under the same terms, in the case of `C#CCOC(=O)[C@]1(C)CC[C@]2(C)CC[C@]3(C)C4=CC=C5C(=CC(=O)C(OC(=O)CCC)=C5C)[C@]4(C)CC[C@@]3(C)[C@@H]2C1` it was 20.9 µM. Still for that read-out and setting: in the case of `C#CCOC(=O)[C@]1(C)CC[C@]2(C)CC[C@]3(C)C4=CC=C5C(=CC(=O)C(OC(=O)c6ccc(Br)cc6)=C5C)[C@]4(C)CC[C@@]3(C)[C@@H]2C1` it was 16.4 µM. The compound `C#CCOC(=O)[C@]1(C)CC[C@]2(C)CC[C@]3(C)C4=CC=C5C(=CC(=O)C(OC(=O)c6ccc(F)cc6)=C5C)[C@]4(C)CC[C@@]3(C)[C@@H]2C1` registered a 50% effective concentration (EC50) of 21.2 µM. On the same count and under the same terms, in the case of `C#CCOC(=O)[C@]1(C)CC[C@]2(C)CC[C@]3(C)C4=CC=C5C(=CC(=O)C(OC(=O)C=C)=C5C)[C@]4(C)CC[C@@]3(C)[C@@H]2C1` it was 22.1 µM; in that of `C#CCOC(=O)[C@]1(C)CC[C@]2(C)CC[C@]3(C)C4=CC=C5C(=CC(=O)C(OC(=O)/C=C/C)=C5C)[C@]4(C)CC[C@@]3(C)[C@@H]2C1`, 19.7 µM.

With `C#CCOC(=O)[C@]1(C)CC[C@]2(C)CC[C@]3(C)C4=CC=C5C(=CC(=O)C(OC(=O)/C=C/c6ccccc6)=C5C)[C@]4(C)CC[C@@]3(C)[C@@H]2C1`, the EC50 is 20.1 µM. Same read-out and setting: for `C#CCOC(=O)[C@]1(C)CC[C@]2(C)CC[C@]3(C)C4=CC=C5C(=CC(=O)C(OC(=O)/C=C/c6ccccc6F)=C5C)[C@]4(C)CC[C@@]3(C)[C@@H]2C1` the value was 14.1 µM. The same measure, in the same setting: for `C#CCOC(=O)[C@]1(C)CC[C@]2(C)CC[C@]3(C)C4=CC=C5C(=CC(=O)C(OC(=O)/C=C/c6cccc(Cl)c6)=C5C)[C@]4(C)CC[C@@]3(C)[C@@H]2C1` the value was 15.7 µM. The same measure, in the same setting: in the case of `C#CCOC(=O)[C@]1(C)CC[C@]2(C)CC[C@]3(C)C4=CC=C5C(=CC(=O)C(OC(=O)/C=C/c6cccc(C)c6)=C5C)[C@]4(C)CC[C@@]3(C)[C@@H]2C1` it was 17.8 µM. `C#CCOC(=O)[C@]1(C)CC[C@]2(C)CC[C@]3(C)C4=CC=C5C(=CC(=O)C(OC(=O)C(=C)C)=C5C)[C@]4(C)CC[C@@]3(C)[C@@H]2C1` gave an EC50 of 14.9 µM. Consider `C#CCOC(=O)[C@]1(C)CC[C@]2(C)CC[C@]3(C)C4=CC=C5C(=CC(=O)C(OC(=O)N(CC)CC)=C5C)[C@]4(C)CC[C@@]3(C)[C@@H]2C1`, for which the EC50 worked out at 20.4 µM. The same measure, in the same setting: for `C#CCOC(=O)[C@]1(C)CC[C@]2(C)CC[C@]3(C)C4=CC=C5C(=CC(=O)C(OC(=O)N(C)CC)=C5C)[C@]4(C)CC[C@@]3(C)[C@@H]2C1` the value was 18.7 µM; for `C#CCOC(=O)[C@]1(C)CC[C@]2(C)CC[C@]3(C)C4=CC=C5C(=CC(=O)C(OC(=O)N(c6ccccc6)c6ccccc6)=C5C)[C@]4(C)CC[C@@]3(C)[C@@H]2C1`, 19.9 µM; for `C#CCOC(=O)[C@]1(C)CC[C@]2(C)CC[C@]3(C)C4=CC=C5C(=CC(=O)C(OC(=O)N6c7ccccc7Sc7ccccc76)=C5C)[C@]4(C)CC[C@@]3(C)[C@@H]2C1`, 18.5 µM. Same read-out and setting: in the case of `C#CCOC(=O)[C@]1(C)CC[C@]2(C)CC[C@]3(C)C4=CC=C5C(=CC(=O)C(OC(=O)N(C)C)=C5C)[C@]4(C)CC[C@@]3(C)[C@@H]2C1` it was 23.9 µM; in that of `C#CCOC(=O)[C@]1(C)CC[C@]2(C)CC[C@]3(C)C4=CC=C5C(=CC(=O)C(OC(=O)N6c7ccccc7CCc7ccccc76)=C5C)[C@]4(C)CC[C@@]3(C)[C@@H]2C1`, 10 µM. The same measure, in the same setting: in the case of `C#CCOC(=O)[C@]1(C)CC[C@]2(C)CC[C@]3(C)C4=CC=C5C(=CC(=O)C(OC(=O)N6CCCCC6)=C5C)[C@]4(C)CC[C@@]3(C)[C@@H]2C1` it was 24.1 µM; in that of `C#CCOC(=O)[C@]1(C)CC[C@]2(C)CC[C@]3(C)C4=CC=C5C(=CC(=O)C(OC(=O)N6CCCC6)=C5C)[C@]4(C)CC[C@@]3(C)[C@@H]2C1`, 24.3 µM.

Compound `C#CCOC(=O)[C@]1(C)CC[C@]2(C)CC[C@]3(C)C4=CC=C5C(=CC(=O)C(OC(=O)N6c7ccccc7C=Cc7ccccc76)=C5C)[C@]4(C)CC[C@@]3(C)[C@@H]2C1` returned an EC50 of 23.1 µM. Same read-out and setting: in the case of `C#CCOC(=O)[C@]1(C)CC[C@]2(C)CC[C@]3(C)C4=CC=C5C(=CC(=O)C(OC(=O)N6CCN(C)CC6)=C5C)[C@]4(C)CC[C@@]3(C)[C@@H]2C1` it was 20.5 µM.

The compound `C#CCOC(=O)[C@]1(C)CC[C@]2(C)CC[C@]3(C)C4=CC=C5C(=CC(=O)C(OC(=O)N(CCC)CCC)=C5C)[C@]4(C)CC[C@@]3(C)[C@@H]2C1` yielded an EC50 of 17.5 µM.

`C#CCOC(=O)[C@]1(C)CC[C@]2(C)CC[C@]3(C)C4=CC=C5C(=CC(=O)C(OC(=O)N(C)CCC)=C5C)[C@]4(C)CC[C@@]3(C)[C@@H]2C1` gave an EC50 of 20.5 µM. Same read-out and setting: in the case of `C#CCOC(=O)[C@]1(C)CC[C@]2(C)CC[C@]3(C)C4=CC=C5C(=CC(=O)C(OC(=O)N(C)CCCC)=C5C)[C@]4(C)CC[C@@]3(C)[C@@H]2C1` it was 20.3 µM; in that of `C#CCOC(=O)[C@]1(C)CC[C@]2(C)CC[C@]3(C)C4=CC=C5C(=CC(=O)C(OC(=O)N(CCCC)CCCC)=C5C)[C@]4(C)CC[C@@]3(C)[C@@H]2C1`, 22.3 µM. Compound `C#CCOC(=O)[C@]1(C)CC[C@]2(C)CC[C@]3(C)C4=CC=C5C(=CC(=O)C(OC(=O)N6CCN(c7ccccc7)CC6)=C5C)[C@]4(C)CC[C@@]3(C)[C@@H]2C1` showed an EC50 of 19.3 µM.

On to `C#CCOC(=O)[C@]1(C)CC[C@]2(C)CC[C@]3(C)C4=CC=C5C(=CC(=O)C(OC(=O)N6CCN(c7ccc(Cl)cc7)CC6)=C5C)[C@]4(C)CC[C@@]3(C)[C@@H]2C1`, for which the EC50 stood at 20.1 µM. This EC50 and that of the compound before are within 1.5-fold of each other. The same measure, in the same setting: for `C#CCOC(=O)[C@]1(C)CC[C@]2(C)CC[C@]3(C)C4=CC=C5C(=CC(=O)C(OC(=O)N6CCN(c7ccccc7Cl)CC6)=C5C)[C@]4(C)CC[C@@]3(C)[C@@H]2C1` the value was 20.3 µM; for `C#CCOC(=O)[C@]1(C)CC[C@]2(C)CC[C@]3(C)C4=CC=C5C(=CC(=O)C(OC(=O)N6CCN(c7cccc(OC)c7)CC6)=C5C)[C@]4(C)CC[C@@]3(C)[C@@H]2C1`, 19.6 µM; for `C#CCOC(=O)[C@]1(C)CC[C@]2(C)CC[C@]3(C)C4=CC=C5C(=CC(=O)C(OC(=O)N6CCN(c7ccccc7OC)CC6)=C5C)[C@]4(C)CC[C@@]3(C)[C@@H]2C1`, 18.2 µM.

Another assay has as its target T1, Caspase-3 (Homo sapiens, UniProt P42574).
T1 sequence (P42574 whole entry): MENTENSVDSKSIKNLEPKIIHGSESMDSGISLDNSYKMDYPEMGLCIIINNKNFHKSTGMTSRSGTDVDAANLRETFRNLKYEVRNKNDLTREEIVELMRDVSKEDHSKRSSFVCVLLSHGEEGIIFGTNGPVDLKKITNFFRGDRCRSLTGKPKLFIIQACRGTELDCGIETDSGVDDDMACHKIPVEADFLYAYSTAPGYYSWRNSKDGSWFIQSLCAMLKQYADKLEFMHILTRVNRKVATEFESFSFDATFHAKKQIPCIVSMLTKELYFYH
The assay is described as follows: Activation of caspase 3 in human MDA-MB-231 cells measured after 48 hrs by Plate reader method.
In turn, `C=c1c(O)c(O)cc2c1=CC=C1[C@@]2(C)CC[C@@]2(C)[C@@H]3C[C@](C)(C(=O)O)CC[C@]3(C)CC[C@]12C` came in with an EC50 of 1400 nM.
